Test results: paper PMC8607231, “Generation of KS-133 as a Novel Bicyclic Peptide with a Potent and Selective VIPR2 Antagonist Activity that Counteracts Cognitive Decline in a Mouse Model of Psychiatric Disorders” (Frontiers in Pharmacology, 2021)
Where a SMILES comes first, the peptide text is derived from it. Bridges are numbered along the chain shown (N, C = ends).

Test system: VIPR2 activation-induced phosphorylation of CREB
Test: Western blot of pCREB in prefrontal cortex of adult mice after i.n. injection
Format: in vivo
Details: mice at 8 weeks, KS-133 20 nmol/mouse i.n. with BAY 55-9837 20 µg/mouse, 45 min after injection
Experimental: For western blot analysis, ICR neonatal mice at P12 (7–10 g body weight) were subcutaneously (s.c.) injected with KS-133 (1 nmol/g) and Ro 25-1553 (0.4 nmol/g, Peptide Institute, Inc. Osaka, Japan), a selective VIPR2 agonist ([Gourlet et al., 1997]; [Harmar et al., 2012]), and adult C57BL/6J mice at 8 weeks of age (20–30 g body weight) were intranasally (i.n.) injected with KS-133 (20 nmol/mouse) and BAY 55-9837 (20 µg/mouse, Tocris Bioscience, Bristol, United Kingdom), another selective VIPR2 agonist ([Tsutsumi et al., 2002]; [Tian et al., 2019]). The dosages of these drugs were determined in a preliminary experiment using the change in phosphorylation of cAMP-response element-binding protein (CREB) as an index. Ro 25-1553 was dissolved in phosphate-buffered saline (PBS) and BAY 55-9837 was dissolved in distilled water. KS-133 was dissolved in saline with 1% dimethyl sulfoxide (DMSO; #13445-74, Nacalai Tesque, Inc., Kyoto, Japan) for s.c. injection or saline with 5% DMSO and 5 mg/ml poly-L-arginine (#P7762, Sigma-Aldrich, St. Louis, MO, United States) for i.n. injection. […]
FIGURE 4 Effects of subcutaneous (A) and intranasal (B) administration of KS-133 on VIPR2 activation-induced phosphorylation of CREB in the prefrontal cortex of mice. Phospho-CREB (pCREB), total CREB, and β-actin levels were analyzed by western blotting. […]

CC[C@H](C)[C@H](NC(=O)[C@H](CC(C)C)NC(=O)[C@@H]1CC(=O)NCCCC[C@@H]2NC(=O)[C@@H]3CCCN3C(=O)[C@H](CC(C)C)NC(=O)[C@H](Cc3ccc(O)cc3)NC(=O)[C@@H]3CCCN3C(=O)[C@@H]3CCCN3C(=O)[C@@H](NC(C)=O)CSSC[C@H](NC(=O)[C@H](CC(C)C)NC(=O)[C@H](Cc3ccc(O)cc3)NC2=O)C(=O)N1)C(N)=O [KS-133, Ac-c[Cys-Pro-Pro-Tyr-Leu-Pro-c(Lys-Tyr-Leu-Cys]-Asp)-Leu-Ile-NH2] (Ac-CPPYLPKYLCDLI-NH2; disulfide 1-10; lactam 7-11)
Effect on BAY 55-9837-induced increase in phosphorylated CREB: blocked
